Assay results from patent publication US20220281930A1, “COMPOSITIONS AND METHODS FOR THE TREATMENT OF PATHOLOGICAL PAIN AND ITCH” (DUKE UNIVERSITY, priority 2019, published 2022).

Assays:
[1] = test system: KCC2; assay: Immuno-cytochemistry morphometry of primary human cortical neurons, KCC2; format: cell-based; conditions: 400 nM KP
Description: The neuron-enriched cultures were established from fetal cortical specimens at 15-20 weeks of gestation. The protocols for tissue processing complied with all federal and institutional guidelines. The cultures were plated on PEI (polyethyleneimine solution) substrate and maintained in Neurobasal media supplemented with B27 as previously described (Pelsman et al., 2003, International journal of developmental neuroscience 21:117-124; Yeo et al., 2013, Proc Natl Acad Sci USA 110:4315-4320).
For immunostaining, the cultures were treated for 2-4 days with vehicle or 400 nM KP, fixed with 4% PFA at day 10, and processed for double-staining with anti-KCC2 and anti-synaptophysin or anti-NeuN (see Table 1).
The 0.34 micrometer confocal slices through entire cell layers at different optical fields (n=17-28 for each group) of the fixated cultures were acquired using a Zeiss LSM700 confocal microscope.
Image Z-stacks were analyzed using Imaris 9.2.1 software. Optical density intensity sum values for each stack/channel were divided by corresponding data volumes and the resulting values were normalized to the number of specifically labeled cells within each stack. There were no significant differences in the number of cells between vehicle and KP-treated groups.

[2] = test system: brain reward mechanisms; assay: Conditioned place preference (CPP); format: in vivo, mouse; conditions: 30 mg/kg i.p.; KP vs vehicle
Description: Conditioned place preference (CPP) was conducted using a CPP box, which consists of two conditioning chambers distinguished by visual and sensory cues, along with a small buffering chamber. All mice received a 3-day preconditioning habituation period with free access to both conditioning chambers and the time spent in each chamber was recorded for 15 min on day 3 after habituation. On conditioning days (day 4-10), mice first received the vehicle control (i.p. 5% DMSO, 5% Tween-80 in normal saline) paired with a randomly chosen chamber in the morning. After 4 hours, mice received KP (i.p. 30 mg/kg) or vehicle, paired with the other chamber. During the conditioning, mice were allowed to stay only in the paired chamber for 15 min without access to other chambers. On test day (d11), mice were placed in the buffering chamber with free access to both conditioning chambers and choice behavior was recorded for 15 min. The CPP scores were calculated as post-conditioning time minus preconditioning time spent in the paired chamber.
With these beneficial effects of KP on pathologic pain and itch, whether KP had undesirable effects on the CNS in terms of sedation, impairment of motor stamina, balance and coordination was assessed. […]

[3] = test system: ß-cat; assay: ß-cat nuclear translocation in primary neurons, immunolabeling; format: cell-based, rat; conditions: KP treatment
Description: Immunocytochemistry labeling of cultured neuronal cells was carried out as previously described (Liedtke et al., 2013, Small 9, 1066-1075; Yeo et al., 2009, J Neurosci 29:14652-14662; Yeo et al., 2013, Proc Natl Acad Sci USA 110:4315-4320). Primary antibodies are shown in the antibody table. Anti-KCC2 primary antibodies were validated with developing rat primary cortical neurons; we observed an increase in staining pattern that tightly matched increase of KCC2 mRNA expression (Liedtke et al., 2013, Small 9:1066-1075; Yeo et al., 2009, J Neurosci 29:14652-14662.; Yeo et al., 2013, Proc Natl Acad Sci USA 110:4315-4320). Secondary antibodies used were goat anti-mouse IgG Alexa Fluor 594 (Invitrogen A11032) and goat anti-rabbit IgG Alexa Fluor 594 (Invitrogen A11012). DAPI stain was obtained from Sigma Aldrich (D9542). Stained cells were observed using an inverted confocal microscope (Zeiss LSM780).
We obtained stacks of images recorded at 0.35 μm intervals through separate channels with a 63× oil-immersion lens (NA, 1.40, refraction index, 1.45). Zen software (Zeiss) was used to construct composite images from each optical series by combining the images recorded through the different channels, and the same software was used to obtain Z projection images (image resolution: 1024×1024 pixels; pixel size: 0.11 μm). ImageJ was used for morphometry. […]

[4] = test system: motor function and coordination of mice; assay: Rotarod assay; format: in vivo, mouse; conditions: 10, 30 mg/kg i.p.; one-time exception high-dose day 7
Description: For assessment in rotarod (RR), all animals received training prior to experiments; mice were placed on the RR apparatus set in an accelerating rotational speed mode (3-30 rpm, 300 s max) per trial. Following training, the average time to fall from the rotating cylinder over three trials was recorded as baseline latency (4-40 rpm, 300 s max/trial). Mice were injected daily with either vehicle or drug compounds before RR tests. Latency to fall was measured (4-40 rpm, 300 s max/trial (inter-trial interval is at least 15 min). The average latency to fall from the rod was recorded for each animal.
With these beneficial effects of KP on pathologic pain and itch, whether KP had undesirable effects on the CNS in terms of sedation, impairment of motor stamina, balance and coordination was assessed. […] Conditioned place preference was used to test whether KP (30 mg/kg; i.p.) can trigger brain reward mechanisms (Jackson et al., 2019, Psychopharmacology, 236(12):3593-3599; Sora et al., 1998, Proc Natl Acad Sci USA 95:7699-7704), and there were no such effects (FIG. 4F). […] In pathologic pain models, KP acts centrally to mediate analgesic effects, and thus relies on KCC2 chloride extrusion.

O=C1Cc2c([nH]c3ccc(Br)cc23)-c2ccccc2N1 [kenpaullone, 9-bromo-7,12-dihydro-indolo [3,2-d] [1]benzazepin-6(5H)-one]
increased KCC2 expression relative to vehicle [1]: 62%
CPP scores [2]: No significant difference in CPP scores
catenin translocation into the nucleus (FIG. 9) [3]: significantly increases
elapsed time on the rotarod [4]: does not affect motor stamina and coordination
